From patent US9522124B2, “Methods for treating Alzheimer's disease” (Wisconsin Alumni Research Foundation, priority 2011, dated 2016)

Key:
C99 = assay: Western blot assessment of C99 levels in H4 cell lysates; assay type: cell-based, human; settings: H4 cells, 48 hours
Protocol: FIG. 7. Compound 9 and 19 decrease levels and activity of BACE1. H4 cells were treated with either compound 9 or 19 for 48 hours prior to Western blot assessment of BACE1 and C99 levels in cell lysates. C99 is the immediate product of BACE1-mediated cleavage of APP.
Western blotting was performed on a 4-12% Bis-Tris SDS-PAGE system (NuPAGE; Invitrogen, Carlsbad, Calif., USA) as described previously (Costantini et al., 2006; Jonas et al., 2008; Jonas et al., 2010; Ko and Puglielli, 2007; Ko and Puglielli, 2009; Pehar et al., 2010). The following antibodies were used in this study: anti-acetylated lysine (monoclonal; cat. no. ab409; Abcam, Cambridge, Mass., USA); anti-BACE1 (polyclonal; cat. no. ab2077; Abcam); anti-Myc (monoclonal; cat. no. sc-40; santa cruz, Santa Cruz, Calif., USA); anti-ATases/NAT8 (polyclonal; cat. no. AP4957c; Abgent, San Diego, Calif., USA); anti-actin (monoclonal; cat. no. A1978; Sigma, St Louis, Mo., USA); anti-C99 (monoclonal; cat. no. M066-3; MBL, Woburn, Mass., USA); anti-acetylated H3 (polyclonal; cat. no. 06-599, Millipore, Billerica, Mass.); anti-acetylated H4 (polyclonal; cat. no. 06-866, Millipore, Billerica, Mass.); anti-αPCNA (polyclonal; cat. no. AP2835b, Abgent, San Diego, Calif., USA).

ATase1 and ATase2 = assay: Western blot of ATase1 and ATase2 levels in CHO cells over-expressing transgenic ATase1 or ATase2; assay type: cell-based, hamster; settings: 10 μM, 48 hours
Protocol: FIG. 4. Compound 9 causes degradation of the ATases. (A) H4 cells were treated with the indicated compounds (10 μM) for 48 hours prior to Western blot assessment of BACE1 and ATase1/ATase2 levels in total cell lysates. (B, D and E) Quantification of changes are expressed as percent of control (no treatment) and are the average (n=3)±S.D.*, P<0.05; **, P<0.005; ^#, P<0.0005. (C) ELISA determination of secreted Aβ in the conditioned media of the experiment described in (A). Results are expressed as percent of control (no treatment) and are the average (n=3)±S.D.*, P<0.05; **, P<0.005. (F) CHO cells over-expressing either ATase1 or ATase2 were treated with compound 9 (10 μM) for 48 hours prior to Western blot assessment of ATase1 and ATase2 levels in total cell lysates.
Western blotting was performed on a 4-12% Bis-Tris SDS-PAGE system (NuPAGE; Invitrogen, Carlsbad, Calif., USA) as described previously (Costantini et al., 2006; Jonas et al., 2008; Jonas et al., 2010; Ko and Puglielli, 2007; Ko and Puglielli, 2009; Pehar et al., 2010). […]

[1] = BBB permeability: mass spectrometry of CSF of treated wild-type mice; assay type: in vivo, mouse; settings: 50 mg/kg/day in diet, 1 week
Protocol: FIGS. 14. (A), (B) and (C) Compound 9 is able to cross the BBB. Wild-type mice (n=5) were fed a diet containing 50 mg/kg/day of compound 9 for one week and then sacrificed. Control animals (n=5) received placebo-containing pellets. CSF was collected and analyzed by mass spectrometry (MS) to detect compound 9. The pick corresponding to compound 9 is indicated. […] Because of the strong hydrophobic properties of the compound, elution was in 100% methanol. Under these conditions most of compound 9 was found protonated and complexed as follows: 1 molecule of compound 9 (protonated):3 molecules of water (1 protonated):1 molecule of methanol. The total mass of the eluted complex was 369.4. This complex is only generated when adding methanol during the elution process for the MS. Compound 9 was never observed in control animals.
To assess BBB permeability properties, a group of 5 wild-type mice received 50 mg/kg/day of compound 9 for 1 week. Animals were then sacrificed and CSF collected for biochemical analysis. Treatment was limited to 1 week because this length of time is usually sufficient to reach equilibrium in biological fluids (Ito, et al., 1998; Singh, 2006; Houston and Galetin, 2008). Concentration and duration of the treatment was based on previous studies with drug-like compounds having similar mass and solubility properties (Ito, et al., 1998; Singh, 2006; Houston and Galetin, 2008).

APP695/swe mice = assay: Long-term potentiation in hippocampal brain slices of treated mice; assay type: in vivo, mouse; settings: 50 mg/kg/day in diet, 4 months
Protocol: FIG. 15. Compound 9 prevents synaptic deficits in APP695/swe mice. Non-Transgenic (Non-Tg) and APP695/swe mice were fed a diet containing 50 mg/kg/day of compound 9 for 4 months prior to synaptic assessment. Compound 9 prevented the severe deficits of the late component of long term potentiation (LTP) that characterizes the APP695/swe phenotype (A). […] Field excitatory postsynaptic potential (fEPSP) as percent of baseline (100) is shown as a function of time. Calibration: 1 mV, 1 ms. All values are mean±SEM. *P<0.0001.
In order to assess disease-relevant functions, we performed a pilot study with APP695/swe mice, a commonly-used mouse model of AD. APP695/swe mice express a modified mouse APP cDNA encoding the 695-amino acid isoform with a “humanized” Aβ domain that includes the familial AD-associated Swedish double mutation. APP695/swe mice develop synaptic deficits at 3-5 months of age, well before any sign of neurodegeneration can be observed. The cognitive deficits as well as the amyloid plaques can be detected only later, at approximately 12-18 months of age (reviewed in Duyckaerts, et al., 2008).
A group of non-transgenic and APP695/swe mice were fed a diet containing 50 mg/kg/day of compound 9. Treatment started at weaning (˜6 weeks of age) and lasted 4 months. […]

Question: Which results are given for `O=c1c(Cl)c2oc3ccccc3nc-2c2ccccc12` [Compound 9]?
Answer: cellular levels of C99 (C99): decreased cellular levels of C99; levels of transgenic ATase1 and ATase2 (ATase1 and ATase2): significantly decreases; detection in CSF (crosses blood brain barrier) [1]: detect compound 9 in all treated animals; defect in late component of long-term potentiation (LTP) (APP695/swe mice; APP695/swe mice): drastically prevented; effect on LTP in non-transgenic mice (APP695/swe mice; non-transgenic mice): no effect was observed
